Laboratory results reported in US20250084074A1, “SUBSTITUTED HETEROCYCLES AS HSET INHIBITORS” (MERCK PATENT GMBH, priority 2022, published 2025).
Where a name gives a salt, the structure may show the parent alone.

Target: HSET full length protein (Homo sapiens (Human), UniProt Q9BW19)
Assay: HSET ADP-Glo Assay S - 3 μM ATP
Format: biochemical
Conditions: 5 nM HSET, 70 μg/mL microtubule, 80 min at rt, read-out: COMBINED HSET ADP GLO IC50
Procedure: Example 281: Testing compounds of the present invention for inhibitory activities against HSET—HSET ADP-Glo Assay S—3 μM ATP
Reagents: (+4° C. Storage) • Paclitaxel Prod.No.TXD.01 2 mM in DMSO (from Universal Biologicals Cambridge). • Tubulin Protein (Pre-formed Microtubules): Bovine Brain Prod.No.MT001-XL Lot.025 10 mg/mL (from Universal Biologicals Cambridge).
Reagents: (−80° C. Storage) • MT001-XL—Tubulin Protein (Pre-formed Microtubules): Bovine Brain—reconstituted in buffer—15 mM PIPES pH7, 1 mM MgCl2, 20 μM paclitaxel (aliquots at 10 mg/mL) from Universal Biologicals Cambridge. • HSET full length protein—Current batch is FL HSET Prep1 (SEQ-000096_002-01_01) • Buffer is 20 mM Hepes pH 7.5, 200 mM NaCl, 2 mM TCEP, 5% glycerol (5 μL aliquots at 10.2 μM)
Reagents: (−20° C. Storage) • ADP-Glo Kinase Assay kit (Promega Prod.No.V9102) 10,000 assay points • ADP-Glo reagent (50 mL), Kinase Detection Reagent (100 mL), and Ultrapure ATP (10 mM) aliquoted
Buffer Stocks (filtered and stored at rt for up to 1 month) • HEPES acid, 4-(2-Hydroxyethyl)piperazine-1-ethanesulfonic acid MW:238, 238.3 mg/mL=1 M • 7149 mg/30 mL=1M (pH to 6.8 with 5 M NaOH) • PIPES, 1,4-Piperazinediethanesulfonic acid MW: 302.4, 30.24 mg/mL=100 mM; 907.2 mg/30 mL=100 mM (pH to 7 with 5 M NaOH, white cloudy suspension until the pH changes) • EGTA, Ethylene glycol-bis(2-aminoethylether)-N,N,N′,N′-tetraacetic acid MW: 380.35, 38.035 mg/mL=100 mM • 1901.75 mg/50 mL=100 mM (pH to ˜7 with 5 M NaOH)—takes a long time to get into solution and for pH to stabilize • Triton-X-100, MW: 625, 62.5 mg/mL=100 mM (6.25% w/v) (viscous, pipette Triton X-100 with a Gilson using a trimmed pipette tip)
ECHO Protocol • Create an ECHO intermediate plate by adding 24.5 μL DMSO to columns 1 & 2, and 40 μL DMSO to columns 23 & 24 of an ECHO 384PP plate • Add 100 nL of compound/DMSO per well in 384-well Proxi-Plate Plus (white) —Perkin Elmer Cat #6008289 using ECHO dose response protocol 100 nL normal to proxi_8pt_200 uM.
Assay buffer (Keep on ice): HEPES pH 6.8, MgCl2, EGTA, Triton X-100, DTT, HPLC H2O Microtubule Working Solution (3.2): • 1 ml PM buffer: PIPES pH 7.0, MgCl2, HPLC H2O, Paclitaxel, mix well, store at rt • Then add 26.4 μL of 10 mg/ml microtubules to 724 μL of the above PM buffer to make 750 μL of microtubule working solution @350 μg/mL microtubules (store at rt)
Stock HSET enzyme solution (3.1)—keep on ice • Add 1.33 μL 10.2 μM HSET Prepi (SEQ-000096_002-01_01) to 1358 μL assay buffer to make a 10 nM stock for a 5 nM final assay concentration (1/1020 dilution).
HSET/Microtubule working solution (3.3) • Mix solutions 3.1 and 3.2 in the ratio of 2.5:1 (1214.3 μL 3.1+485.7 μL 3.2) keep at rt for 15 min • 3.2 is diluted 3.5-fold, 3.1 is diluted 1.4-fold BLANK solution is 357 μL 2XAB+143 μL microtubule working solution 3.2. (Same proportions as HSET/Microtubule working solution (3.3))
ATP Working solution is 1 μL 10 mM UltraPure ATP (Promega kit)+999 μL ddH20 gives 10 μM ATP for a 3 μM final assay concentration, stored on ice.
Assay procedure in PROXIPLATE 384 PLUS WHITE (Perkin Elmer) plates (Remove 2.4 mL ADP Glo and 4.5 mL Kinase detection reagent from freezer to warm up to rt) • Add 3.5 μL BLANK solution to assay plate (column 12) • Add 3.5 μL HSET/Microtubule solution (3.3) (columns 1-11 & 13-24) • Centrifuge at 1000 rpm for 1 min • (pre-incubate enzyme and compound for 10 min)
Add 1.5 μL of 10 μM ATP to start reaction gives a final [HSET] of 5 nM, [ATP] of 3 μM and [microtubule] of 70 μg/mL, centrifuge at 1000 rpm for 1 min and incubated at rt for 80 min.
After the 80-minute incubation, stop reaction by adding 5 μL ADP-Glo reagent to all wells. Centrifuge for 1 min at 1000 rpm, leave for 40 min at rt.
In the dark/away from direct light, add 10 μL Kinase Detection Reagent (KDR) to all wells, Seal plate with a Topseal (Perkin Elmer Cat #6050185) and centrifuge as above, leave for 40 min at rt covered in foil. […]

HSET full length protein, sequence (Q9BW19 whole entry): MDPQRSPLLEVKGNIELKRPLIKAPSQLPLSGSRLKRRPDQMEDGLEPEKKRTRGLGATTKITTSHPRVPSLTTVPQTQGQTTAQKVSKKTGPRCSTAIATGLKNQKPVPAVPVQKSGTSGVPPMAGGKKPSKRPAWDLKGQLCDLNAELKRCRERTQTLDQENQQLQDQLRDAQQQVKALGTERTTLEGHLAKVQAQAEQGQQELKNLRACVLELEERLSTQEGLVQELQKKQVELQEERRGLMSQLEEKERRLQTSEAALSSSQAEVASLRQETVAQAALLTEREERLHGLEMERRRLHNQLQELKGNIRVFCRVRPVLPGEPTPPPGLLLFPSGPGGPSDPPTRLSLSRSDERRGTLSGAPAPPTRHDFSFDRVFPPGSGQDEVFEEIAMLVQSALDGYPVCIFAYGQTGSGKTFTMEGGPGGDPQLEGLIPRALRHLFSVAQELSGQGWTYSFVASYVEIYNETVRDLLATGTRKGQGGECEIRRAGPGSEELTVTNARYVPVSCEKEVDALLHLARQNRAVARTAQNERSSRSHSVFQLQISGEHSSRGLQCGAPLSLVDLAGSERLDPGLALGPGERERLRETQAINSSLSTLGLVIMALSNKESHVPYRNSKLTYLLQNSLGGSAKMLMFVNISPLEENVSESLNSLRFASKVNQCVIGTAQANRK

Compared with `CCOC(=O)c1sc(NC(=O)CC(NC(=O)c2cccc(-c3noc(C)n3)c2)C2CCNCC2)nc1C` (stereo not drawn) [Example 146, 4-(3-((5-(ethoxycarbonyl)-4-methylthiazol-2-yl)amino)-1-(3-(5-methyl-1,2,4-oxadiazol-3-yl)benzamido)-3-oxopropyl)piperidin-1-ium formate], `Cc1nc(-c2cccc(C(=O)NCCC(=O)Nc3nc(C)c(C(=O)OC(C)C)s3)c2)no1` [Example 66, Isopropyl 4-methyl-2-(3-(3-(5-methyl-1,2,4-oxadiazol-3-yl)benzamido)propanamido)thiazole-5-carboxylate] is 6.5-fold lower in IC50: 260 nM for the first, 40 nM for the second.

First: Cc1nc(-c2ccc3ccnc(NCCC(=O)Nc4ncc(C5=CCCCC5)s4)c3c2)no1 [Example 86]
Second: COC(=O)c1sc(NC(=O)CCNc2nccc3ccc(-c4noc(C)n4)cc23)nc1C [Example 46, Methyl 4-methyl-2-[3-[[7-(5-methyl-1,2,4-oxadiazol-3-yl)-1-isoquinolyl]amino]propanoylamino]thiazole-5-carboxylate]
The IC50 of the first is 23-fold higher: 848 nM for the first, 37 nM for the second.

Compared with `CCCOC(=O)c1sc(NC(=O)CCNC(=O)c2cc(C(=O)OC)cc(C(C)(C)C)c2)nc1C` [Example 29, Propyl 2-(3-(3-(tert-butyl)-5-(methoxycarbonyl)benzamido)propanamido)-4-methylthiazole-5-carboxylate], `CCOC(=O)c1sc(NC(=O)CCNC(=O)c2cccc(C(=O)OC)c2F)nc1C` [Example 11, Ethyl 2-[3-[(2-fluoro-3-methoxycarbonyl-benzoyl)amino]propanoylamino]-4-methyl-thiazole-5-carboxylate] is 24-fold higher in IC50: 77 nM for the first, 1830 nM for the second.

Compared with `Cc1nc(NC(=O)[C@H]2C[C@@H](Nc3nccc4ccc(C(F)(F)F)cc34)C2)sc1C(=O)OC(C)(C)C` [Example 109, tert-Butyl 4-methyl-2-((1s,3s)-3-((7-(trifluoromethyl)isoquinolin-1-yl)amino)cyclobutane-1-carboxamido)thiazole-5-carboxylate], `Cc1ccc2ccnc(N[C@H]3C[C@@H](C(=O)Nc4nc(C)c(C(C)(C)C)s4)C3)c2c1` [Example 117, N-(5-tert-butyl-4-methyl-thiazol-2-yl)-3-[(7-methyl-1-isoquinolyl)amino]cyclobutanecarboxamide] is 5.3-fold higher in IC50: 1780 nM for the first, 9490 nM for the second. The first is the more potent here.

First: Cc1nc(-c2ccc3ncnc(N[C@H]4C[C@@H](C(=O)N(C)c5nc(C)c(C(=O)OC(C)(C)C)s5)C4)c3c2)no1 [Example 49, tert-Butyl 4-methyl-2-((1 s,3s)-N-methyl-3-((6-(5-methyl-1,2,4-oxadiazol-3-yl)quinazolin-4-yl)amino)cyclobutane-1-carboxamido)thiazole-5-carboxylate formate]
Second: CCCOC(=O)c1sc(NC(=O)[C@H]2C[C@@H](Nc3nccc4ccc(-c5noc(C)n5)cc34)C2)nc1C [Example 99, Propyl4-methyl-2-((1s,3s)-3-((7-(5-methyl-1,2,4-oxadiazol-3-yl)isoquinolin-1-yl)amino)cyclobutane-1-carboxamido)thiazole-5-carboxylate]
The IC50 of the first is 8.4-fold higher: 59 nM for the first, 7 nM for the second.

Going from `Cc1nc(-c2cccc(C(=O)N[C@@H](CC#N)CC(=O)N(C)c3nc(C)c(C(=O)OC(C)C)s3)c2)no1` [Example 199, Propan-2-yl 2-[(3S)-4-cyano-N-methyl-3-{[3-(5-methyl-1,2,4-oxadiazol-3-yl)phenyl]-formamido}butanamido]-4-methyl-1,3-thiazole-5-carboxylate] to `Cc1nc(-c2cccc(C(=O)N[C@@H](CC#N)CC(=O)Nc3nc(C)c(C(=O)OC(C)(C)C)s3)c2)no1` [Example 193, tert-Butyl 2-[(3S)-4-cyano-3-{[3-(5-methyl-1,2,4-oxadiazol-3-yl)phenyl]form, amido}-butanamido]-4-methyl-1,3-thiazole-5-carboxylate], the IC50 falls from 10 nM to 5 nM (2-fold).

Compared with `COC1(c2sc(NC(=O)CCNc3nccc4ccc(-c5noc(C)n5)cc34)nc2C)COC1` [Example 83, N-[5-(3-methoxyoxetan-3-yl)-4-methyl-thiazol-2-yl]-3-[[7-(5-methyl-1,2,4-oxadiazol-3-yl)-1-isoquinolyl]amino]propanamide], `Cc1nc(-c2ccc3ccnc(NC[C@H](O)C(=O)Nc4nc(C)c(CC(C)C)s4)c3c2)no1` [Example 179, (S)-2-hydroxy-N-(5-isobutyl-4-methylthiazol-2-yl)-3-((7-(5-methyl-1,2,4-oxadiazol-3-yl)isoquinolin-1-yl)amino)propenamide] is 39-fold lower in IC50: 1680 nM for the first, 43 nM for the second.

Compared with `Cc1cc(C(=O)N2CC[C@H](Nc3nccc4ccc(-c5noc(C)n5)cc34)C2)no1` [Example 251, (5-Methylisoxazol-3-yl)-[(3S)-3-[[7-(5-methyl-1,2,4-oxadiazol-3-yl)-1-isoquinolyl]amino]pyrrolidin-1-yl]methanone], `CCOC(=O)c1sc(NC(=O)[C@H]2C[C@@H](Nc3nccc4ccc(-c5noc(C)n5)cc34)C2)nc1C(F)F` [Example 116, Ethyl-4-(difluoromethyl)-2-[[3-[[7-(5-methyl-1,2,4-oxadiazol-3-yl)-1-isoquinolyl]amino]cyclobutanecarbonyl]amino]thiazole-5-carboxylate] is 39-fold lower in IC50: 5620 nM for the first, 144 nM for the second. The second is the more potent here.

Compared with `CCOC(=O)c1sc(NC(=O)CCNC(=O)c2cccc(N3CCCC3)c2)nc1C` [Example 2, Ethyl 4-methyl-2-(3-(3-(pyrrolidin-1-yl)benzamido)propanamido)thiazole-5-carboxylate], `Cc1nnc(-c2cccc(C(=O)N[C@H]3C[C@@H](C(=O)Nc4nc(C)c(C(=O)OC(C)(C)C)s4)C3)c2)o1` [Example 106, tert-Butyl 4-methyl-2-((1s,3s)-3-(3-(5-methyl-1,3,4-oxadiazol-2-yl)benzamido)cyclobutane-1-carboxamido)thiazole-5-carboxylate] is 30-fold lower in IC50: 3970 nM for the first, 132 nM for the second.

`CNCCC[C@@H](CC(=O)Nc1nc(C)c(C(C)(C)C)s1)Nc1nccc2ccc(-c3noc(C)n3)cc12` [Example 171, (S)-N-(5-(tert-butyl)-4-methylthiazol-2-yl)-3-((7-(5-methyl-1,2,4-oxadiazol-3-yl)isoquinolin-1-yl)amino)-6-(methylamino)hexanamide] and `CCCOC(=O)c1sc(NC(=O)[C@@H]2C[C@H](Nc3nccc4ccc(-c5noc(C)n5)cc34)CN2)nc1C` [Example 239, Propyl 4-methyl-2-((2S,4S)-4-((7-(5-methyl-1,2,4-oxadiazol-3-yl)isoquinolin-1-yl)amino)pyrrolidine-2-carboxamido)thiazole-5-carboxylate] are within 1.5-fold of each other in IC50: 149 nM for the first, 119 nM for the second.

Molecule `CCOC(=O)n1cc(NC(=O)CCNc2nccc3ccc(-c4cnn(C)c4)cc23)nc1C` [Example 261, Ethyl 2-methyl-4-(3-{[7-(1-methyl-1 H-pyrazol-4-yl)isoquinolin-1-yl]amino}propanamido)-1 H-imidazole-1-carboxylate] has an IC50 of 13000 nM.
